Our source for the inhibition, IC50 and solubility values is patent EP2556819A1, “EXTERNAL SKIN PREPARATION” (Kao Corporation, priority 2010, dated 2011).

SMILES strings stand for the structures. Converted amounts (≈) assume the structure as drawn.

The term inhibition denotes how much of the control response was suppressed. The IC50 is the concentration needed to halve the response being measured. The low end stands for greater potency, the high end for weaker potency. As a reminder, the solubility is how much of the substance goes into solution per volume.

In series [1] the test system is cultured skin model containing melanin cells (MEL-300, Asian Doner, manufactured by Kurabo Industries, Ltd.). Nature of the series: Melanin production inhibition test using three-dimensional cultured skin model. The format is cell-based. To be noted: 336 h, cultured for 14 days, read-out: Melanin production inhibition rate (% with respect to control); for inhibition at 100 µM: Addition concentration 100 µM; for inhibition at 50 µM: Addition concentration 50 µM. The source says: 4-(3-alkoxybutyl)phenol obtained in the above-mentioned Production Example 1 was subjected to the below-mentioned melanin production inhibition test. Note here that as a comparison target, 4-(3-hydroxybutyl)phenol in which an alkyl group had been removed from 4-(3-alkoxybutyl)phenol -and 4-(3-acetoxybutyl)phenol and 4-(3-propanoyloxybutyl)phenol as an ester compound having the same number of carbon atoms, were used.
To a skin model cup of a cultured skin model containing melanin cells (MEL-300, Asian Doner, manufactured by Kurabo Industries, Ltd.), 0.2 mL of a solution of a test substance was placed, and the skin model was cultured for 14 days by using an LLMM medium attached to the product. During the culture period, the medium was replaced by a new medium every three days. After culture for 14 days, the skin model was washed, the survival rate was measured by fluorescence measurement (Excitation: 560 nm, Emission: 590 nm) using an AlamarBlue reagent (manufactured by Molecular Probe), and the amount of melanin synthesized in each skin model was measured. The amount of melanin synthesized was determined by the colorimetric determination (405 nm) of a solution obtained by immersing each skin model in PBS so as to separate a cell layer, then washing it with PBS and hydrous ethanol, adding 0.2 mL of a 2N NaOH aqueous solution, and extracting melanin at 100°C for three hours.

In series [2] the test system is B16 melanoma cells. The series is described as follows: in vitro melanin production inhibition test. The series is classed as cell-based. To be noted: Mus musculus, concentration inhibiting production of melanin by 50%, cultured for 72 hours, theophylline 2 mmol/L, melanin per unit amount of protein. The method, then:
The 4-(3-alkoxybutyl)phenol compound obtained in the above-mentioned Production Example 1 was subjected to the following melanin production inhibition test. Note here that as a comparison target, arbutin, ascorbic acid, kojic acid, and linoleic acid, which are known to have a melanin production-inhibitory action, were used. B16 melanoma cells were seeded in a minimum essential medium (MEM) supplemented with 10 vol% fetal bovine serum in 12-well plates at 1 × 10^4 cells/well, and pre-cultured for 24 hours by a usual method. After pre-culture, the medium was replaced to a test medium to which each evaluation sample had been added at various concentrations, and the medium was cultured for 72 hours. As the test medium, the above-mentioned pre-culture medium to which theophylline had been added at 2 mmol/L was used. After culture, cells were collected and dissolved in 1 mol/L of an aqueous solution of sodium hydroxide containing 10 vol% dimethyl sulfoxide, and an OD475 value of the solution was measured and the value was defined as an index of the amount of melanin. Furthermore, at the same time, by using Coomasie Plus Protein Assay Kit (manufactured by PIERCE), the total amount of protein in the solution was measured, and the amount of melanin per unit amount of protein was calculated. Based on the amount of melanin per unit amount of protein, the melanin production inhibition rate was calculated per each addition concentration from the following formula. Melanin production inhibition rate (%) = (A-B)/A [formula] (wherein A denotes the amount of melanin per unit amount of protein when no sample was added, and B denotes the amount of melanin per unit amount of protein when a sample was added). Next, a graph in which the concentration of the added sample is plotted on the axis of abscissas, and a melanin production inhibition rate is plotted in the axis of ordinates was formed, and concentration at which each evaluation sample inhibits the production of melanin by 50% (IC50) was determined from this graph.

A short description of series [3]: Solubility test. The format is physicochemical. To be noted: thermodynamic from solid, 0.1 g compound + 1 mL solvent, heated at 40°C for 10 min., returned to room temperature, visual observation. Here is the method: By using 4-(3-ethoxybutyl)phenol obtained in the above-mentioned Production Example 1, the following solubility test was carried out. Note here that as a comparison target, 4-(3-hydroxybuty)phenol was used.
To 0.1 g of each compound, 1 mL of each solvent described in the following table 1 was added. The mixture was heated at 40°C for 10 min., and then the temperature was returned to room temperature. The solubility in the solvent at this time was evaluated by visual observation. The evaluation was carried out in which a case where it was dissolved was evaluated as "a" and a case where insolubles were left was evaluated as "b."

[4] abbreviates: oil or lipid, Glyceryl tri(2-ethylhexanoate).
The mark [5] stands for this setting: oil or lipid, Isocetyl myristate.
[6] abbreviates: oil or lipid, Methylphenyl polysiloxane (Silicon FZ209).
[7] abbreviates: oil or lipid, Octyldodecyl myristate.
The mark [8] stands for this setting: organic solvent or mixture, Dipropylene glycol.
The mark [9] stands for this setting: organic solvent or mixture, Ethanol.

Regarding `COC(C)CCc1ccc(O)cc1` (stereo not drawn) [4-(3-Methoxybutyl)phenol, 4-(3-methoxybutyl)phenol], the inhibition at 100 µM in series [1] was 55.6%. The same molecule returned a 50% inhibitory concentration (IC50) in series [2] of 2 mg/L (≈ 11.1 µM).

In the case of `CC(C)OC(C)CCc1ccc(O)cc1` (stereo not drawn) [4-(3-Isopropoxybutyl)phenol, 4-(3-isopropoxybutyl)phenol], in series [1], the inhibition at 50 µM stood at 56.9%. Also, inhibition in series [2] was half-maximal at 2 mg/L (≈ 9.6 µM) (IC50).

For the molecule `CC(=O)OC(C)CCc1ccc(O)cc1` (stereo not drawn) [4-(3-Acetoxybutyl)phenol, 4-(3-acetoxybutyl)phenol, reference compound], the inhibition at 100 µM in series [1] is 26.7%.

`O=c1cc(CO)occ1O` [Kojic acid, kojic acid, reference compound] had an IC50 in series [2] of 180 mg/L (≈ 1270 µM).

In the case of `OC[C@H]1O[C@@H](Oc2ccc(O)cc2)[C@H](O)[C@@H](O)[C@@H]1O` [Arbutin, arbutin, reference compound], in series [2], the IC50 is 30 mg/L (≈ 110 µM).

With `CCOC(C)CCc1ccc(O)cc1` (stereo not drawn) [4-(3-Ethoxybutyl)phenol, 4-(3-ethoxybutyl)phenol], the inhibition at 100 µM in series [1] came to 56%. Besides, the solubility at 10 min in series [3] (setting [4]), in series [3] (setting [5]), in series [3] (setting [6]), in series [3] (setting [7]), in series [3] (setting [8]) and in series [3] (setting [9]) was more than 100 mg/mL throughout. In addition, in series [2], inhibition was half-maximal at 2 mg/L (≈ 10.3 µM) (IC50).

The molecule `O=C1O[C@H]([C@@H](O)CO)C(O)=C1O` [Ascorbic acid, ascorbic acid, reference compound] yielded an IC50 in series [2] of 60 mg/L (≈ 341 µM).

With `CC(O)CCc1ccc(O)cc1` (stereo not drawn) [4-(3-Hydroxybutyl)phenol, 4-(3-hydroxybutyl)phenol, reference compound], the inhibition at 100 µM in series [1] worked out at 18.6%. Further, the solubility at 10 min in series [3] (setting [4]) was less than 100 mg/mL; in series [3] (setting [5]), less than 100 mg/mL; in series [3] (setting [6]) it was less than 100 mg/mL; in series [3] (setting [7]), more than 100 mg/mL; in series [3] (setting [8]) it was more than 100 mg/mL; in series [3] (setting [9]), more than 100 mg/mL.

Regarding `CCCOC(C)CCc1ccc(O)cc1` (stereo not drawn) [4-(3-Propoxybutyl)phenol, 4-(3-propoxybutyl)phenol], in series [1], the inhibition at 50 µM was 69.5%. This molecule showed an IC50 in series [2] of 2.5 mg/L (≈ 12 µM).

As for `CCCCC/C=C\C/C=C\CCCCCCCC(=O)O` [Linoleic acid, linoleic acid, reference compound], in series [2], half-maximal inhibition (IC50) was put at 4 mg/L (≈ 14.3 µM).

Turning to `CCC(=O)OC(C)CCc1ccc(O)cc1` (stereo not drawn) [4-(3-Propanoyloxybutyl)phenol, 4-(3-propanoyloxybutyl)phenol, reference compound], the inhibition at 50 µM in series [1] was 18.4%.
